Test results as given in US8343930B2, “Combination therapy for the treatment of tumors” (Cancer Advances, Inc., priority 2001, dated 2013).

Tests used:
[1] = test system: a number of cell lines; conditions: Seva et al., 1990; Watson et al., 1991a; cited from earlier work
[2] = test system: gastrin-sensitive mouse colon tumor MC26; conditions: MC26-bearing mice; control animals 25 days; cited from earlier work
[3] = test system: rat colon tumor DHDK12; test: In vivo growth of DHDK12 tumors in abdominal wall muscle layer of BDIX rats; conditions: immunization alone (200 μg/ml), 50 day time period; untreated 4.43 g
Procedure: Cell line. DHDK12 is a rat colonic epithelial tumor cell line (Martin, 1983). The cell line was maintained in RPMI 1640 growth medium (Gibco, Paisley, Scotland) containing 10% fetal calf serum (FCS, Sigma, Poole, UK) in humidified conditions at 37° C. and 5% CO2.
Initiation of tumor growth. DHDK12 cells were suspended in sterile phosphate buffered line (PBS, Oxoid, Hants., UK) at a cell concentration of 2.5×10^7/ml. Rats were anesthetized by a 1 ml intraperitoneal injection of Hypnorm ([…] fenatanyl citrate and 10 mg/ml fluanisone; Jannsen, Berrse, Belgium), Hypnovel ([…] midazolam; Roche, Basel, Switzerland), and sterile distilled water in a 1:1:5 ratio. Following a subcutaneous (s.c.) incision on the right flank, a 200 μl volume of cell suspension was injected into the muscle layer of the abdominal wall and the surgical incision closed by wound clips. Each experimental group was composed of between 6 and 13 animals.
The effects of combined therapies with 5-FU/Leucovorin (12.5-30 mg/kg) and rat anti-G17(1-9)-DT (200 μg/ml) on the growth of the rat colon tumor DHDK12 cell line in the muscle layer of the abdominal wall of BDIX rats were tested by comparison to tumors in control animals as described in the previous Examples. At the end of the therapies the rats were killed, their tumors excised and weighed using standard procedures. […]

[4] = test system: advanced colorectal cancer; conditions: advanced disease (Petrioli et al., 1995); cited from earlier work

For `O=C(N[C@@H](Cc1c[nH]c2ccccc12)C(=O)O)c1ccc(Cl)cc1` [Benzotript], the “effect on basal and gastrin-stimulated proliferation” value [1] is given as “inhibited”.

For `CCCN(CCC)C(=O)C(CCC(=O)O)NC(=O)c1ccccc1` (centres unmarked) [proglumide], the “survival of treated animals” value [2] is listed as 39 days and the “effect on basal and gastrin-stimulated proliferation” value [1] is listed as “inhibited”.

For Diphtheria toxoid [DT], the median tumor weight [3] was 4.7 g.

In the case of `O=c1[nH]cc(F)c(=O)[nH]1` [5-FU, 5-fluorouracil], the median survival [4] is given as 7.5 months.
